{"source": "patent US6011070A", "about": "“Slow-onset, long-lasting dopamine reuptake blockers” (priority 1997, dated 2000)", "key": {"squirrel monkeys [1]": {"tested_on": "squirrel monkeys", "experiment": "Locomotor response in primates (Example 5)", "assay_type": "in vivo", "description": "Compound 1 was tested for its ability to induce a locomotor response in primates according to procedures disclosed in Rosenzweig-Lipson et al., Psychopharmacology 107:186 (1992). Three squirrel monkeys were administered 1.0 mg/kg of Compound 1. […] The results for each monkey are shown below in Table III and is presented as the responses per second on each day of the test. Controls were established by testing each monkey prior to administering Compound 1."}, "monkeys": {"tested_on": "monkeys", "experiment": "Previous evaluation, Task I: Drug Discrimination", "assay_type": "in vivo", "source_text": "It is of interest to compare the results of the present study with the results of our previous evaluation of Compound 1 in Task I: Drug Discrimination. […] Higher doses of Compound 1 were not examined in the present study."}, "dopamine transporter [2]": {"target": "T1, dopamine transporter (Rattus norvegicus, UniProt P23977)", "T1 construct": "from tissue", "T1 sequence (P23977 whole entry)": "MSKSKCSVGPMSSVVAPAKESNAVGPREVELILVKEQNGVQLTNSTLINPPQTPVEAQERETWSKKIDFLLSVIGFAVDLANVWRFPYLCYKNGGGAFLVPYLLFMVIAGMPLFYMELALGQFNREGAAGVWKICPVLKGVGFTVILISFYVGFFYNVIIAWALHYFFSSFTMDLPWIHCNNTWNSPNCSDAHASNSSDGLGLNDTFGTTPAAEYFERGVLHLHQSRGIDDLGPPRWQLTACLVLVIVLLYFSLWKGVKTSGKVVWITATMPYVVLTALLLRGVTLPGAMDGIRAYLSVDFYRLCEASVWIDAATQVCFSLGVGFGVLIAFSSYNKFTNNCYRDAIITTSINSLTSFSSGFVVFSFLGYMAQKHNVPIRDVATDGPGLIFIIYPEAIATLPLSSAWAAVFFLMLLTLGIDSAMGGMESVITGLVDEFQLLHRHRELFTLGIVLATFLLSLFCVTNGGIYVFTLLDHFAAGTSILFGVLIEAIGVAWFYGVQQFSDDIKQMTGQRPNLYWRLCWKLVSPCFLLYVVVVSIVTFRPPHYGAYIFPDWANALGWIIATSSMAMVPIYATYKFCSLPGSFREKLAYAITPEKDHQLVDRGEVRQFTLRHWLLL", "experiment": "Inhibition of binding of dopamine to the dopamine transporter (Example 4)"}, "male Swiss-Webster mice": {"tested_on": "male Swiss-Webster mice", "experiment": "Dose response study of induced locomotor stimulation (Digiscan), 1 h session (Example 2)", "assay_type": "in vivo, Swiss-Webster mice (Hsd:ND4)", "details": "IP, locomotor activity", "description": "A dose response study of induced locomotor stimulation was conducted according to the following procedure. The study was conducted using a 16 or 32 Digiscan locomotor activity testing chambers (40.5×40.5×30.5 cm) housed in sets of two, within sound-attenuating chambers. A panel of infrared beams (16 beams) and corresponding photodetectors were located in the horizontal direction along the sides of each activity chamber. A 15-W incandescent light above each chamber provided dim illumination. Fans provided an 80-dB ambient noise level within the chamber. Separate groups of 8 non-habituated male Swiss-Webster mice (Hsd:ND4, aged 2-3 months) were injected via the intraperitoneal (IP) route with either vehicle (deionized water for Compounds 1-4, carboxymethylcellulose for Compound 6 or methyl cellulose for Compound 7)) or test compound (1, 2.5, 5, 10, 25 or 50 mg/kg for Compound 3; 1, 3, 10 and 30 mg/kg for Compounds 1, 2 and 4; 3, 10, 30 or 100 mg/kg for Compound 6; and 1, 3, 10, 30 and 100 mg/kg for Compound 7). Compounds 1-4 were injected immediately prior to locomotor activity testing. […] In all studies, horizontal activity (interruption of photocell beams) was measured for 1 hour within 10 minute periods. Testing was conducted with one mouse per activity chamber.\nFIGS. 1, 3, 5 and 7 show average horizontal activity counts/10 minutes as a function of time, immediately following injection of Compound 1, Compound 2, Compound 3 and Compound 4, respectively. FIGS. 13 and 15 show average horizontal activity counts/10 minutes as a function of time, beginning twenty minutes following injection of Compound 6 and Compound 7, respectively. The period 30-60 minutes was selected for analysis of dose-response data. Using TableCurve 2D v2.03 software (Jandel Scientific), the mean average horizontal activity counts/10 minutes for this period were fit to a 3-parameter logistic peak function of log10 dose (with the constant set to 1989, the mean of the vehicle-treated group), and the maximum effect estimated from the resulting curve. […] FIGS. 2, 4, 6, 8, 14 and 16 show average horizontal activity counts/10 minutes over 30 minutes versus the amount administered of Compound 1, Compound 2, Compound 3, Compound 4, Compound 6 and Compound 7, respectively."}, "dopamine transporter [3]": {"target": "T1, dopamine transporter", "experiment": "Inhibition of dopamine reuptake (Example 4)", "assay_type": "biochemical"}, "squirrel monkeys [4]": {"tested_on": "squirrel monkeys", "experiment": "Locomotor response in primates (Example 5)", "assay_type": "in vivo", "remark": "listed apart in the source"}, "male rhesus monkeys": {"tested_on": "male rhesus monkeys", "details": "for Rates of cocaine self-administration, % of control levels: 30 min pretreatment"}}, "note": "Read-outs that look alike come from different tables or passages of the source.", "data": [{"smiles": "CN(C)C1CC(c2ccc(Cl)c(Cl)c2)c2ccccc21", "note": "(stereo not shown) [Compound 1, N,N-dimethyl-3-(3',4'-dichlorophenyl)-1-indanamine]", "values": [{"measurement": "Time of peak of locomotor response", "setting": "squirrel monkeys [1]; 1.0 mg/kg Compound 1", "result": "three"}, {"measurement": "Number of Responses/Second", "setting": "squirrel monkeys [1]; 1.0 mg/kg Compound 1, Day 1, Monkey 6 (control 0.93)", "result": 1.01, "unit": "responses/second"}, {"measurement": "Number of Responses/Second", "setting": "squirrel monkeys [1]; 1.0 mg/kg Compound 1, Day 2, Monkey 4 (control 1.15)", "result": 1.72, "unit": "responses/second"}, {"measurement": "Number of Responses/Second", "setting": "squirrel monkeys [1]; 1.0 mg/kg Compound 1, Day 4, Monkey 4 (control 1.15)", "result": 1.06, "unit": "responses/second"}, {"measurement": "Number of Responses/Second", "setting": "squirrel monkeys [1]; 1.0 mg/kg Compound 1, Day 4, Monkey 5 (control 0.51)", "result": 1.01, "unit": "responses/second"}, {"measurement": "Number of Responses/Second", "setting": "squirrel monkeys [1]; 1.0 mg/kg Compound 1, Day 5, Monkey 4 (control 1.15)", "result": 1.05, "unit": "responses/second"}, {"measurement": "Effect on response rates", "setting": "monkeys; Compound 1, 3.2 mg/kg", "result": "little effect on response rates in two monkeys, increased response rates in one monkey, and eliminated responding in only one monkey"}, {"measurement": "Effect on responding, feeding and behavior", "setting": "monkeys; Compound 1, 10 mg/kg, one monkey", "result": "eliminated operant responding, decreased free feeding and produced overt behavioral effects including hyperactivity and agitation for several days"}, {"measurement": "Effect on response rates", "setting": "monkeys; Compound 1, doses up to 1.0 mg/kg", "result": "little or no effect on response rates"}, {"measurement": "IC50", "setting": "dopamine transporter [2]", "result": 47, "unit": "nM"}, {"measurement": "Maximal Effect Relative to Cocaine", "setting": "male Swiss-Webster mice", "result": 0.82}, {"measurement": "ED50", "setting": "male Swiss-Webster mice; Mus musculus, 30-60 min period, read-out: ED50 (dose producing 1/2 maximal stimulant activity)", "result": 4.88, "unit": "mg/kg"}, {"measurement": "Uptake/Binding", "setting": "dopamine transporter [3]; ratio of IC50 values", "result": 1.19}, {"measurement": "IC50", "setting": "dopamine transporter [3]; read-out: DA Uptake, inhibition of dopamine reuptake IC50", "result": 56, "unit": "nM"}, {"measurement": "Onset of locomotor response", "setting": "squirrel monkeys [4]; 1.0 mg/kg Compound 1, 25 minute intervals", "result": "slow onset locomotor response"}, {"measurement": "Number of Responses/Second", "setting": "squirrel monkeys [4]; 1.0 mg/kg Compound 1, Day 1, Monkey 4 (control 1.15)", "result": 1.63, "unit": "responses/second"}, {"measurement": "Number of Responses/Second", "setting": "squirrel monkeys [4]; 1.0 mg/kg Compound 1, Day 1, Monkey 5 (control 0.51)", "result": 0.76, "unit": "responses/second"}, {"measurement": "Number of Responses/Second", "setting": "squirrel monkeys [4]; 1.0 mg/kg Compound 1, Day 2, Monkey 5 (control 0.51)", "result": 1.50, "unit": "responses/second"}, {"measurement": "Number of Responses/Second", "setting": "squirrel monkeys [4]; 1.0 mg/kg Compound 1, Day 2, Monkey 6 (control 0.93)", "result": 1.31, "unit": "responses/second"}, {"measurement": "Number of Responses/Second", "setting": "squirrel monkeys [4]; 1.0 mg/kg Compound 1, Day 3, Monkey 4 (control 1.15)", "result": 1.92, "unit": "responses/second"}, {"measurement": "Number of Responses/Second", "setting": "squirrel monkeys [4]; 1.0 mg/kg Compound 1, Day 3, Monkey 5 (control 0.51)", "result": 1.51, "unit": "responses/second"}, {"measurement": "Number of Responses/Second", "setting": "squirrel monkeys [4]; 1.0 mg/kg Compound 1, Day 3, Monkey 6 (control 0.93)", "result": 1.40, "unit": "responses/second"}, {"measurement": "Number of Responses/Second", "setting": "squirrel monkeys [4]; 1.0 mg/kg Compound 1, Day 4, Monkey 6 (control 0.93)", "result": 1.16, "unit": "responses/second"}, {"measurement": "Number of Responses/Second", "setting": "squirrel monkeys [4]; 1.0 mg/kg Compound 1, Day 5, Monkey 5 (control 0.51)", "result": 0.82, "unit": "responses/second"}, {"measurement": "Number of Responses/Second", "setting": "squirrel monkeys [4]; 1.0 mg/kg Compound 1, Day 5, Monkey 6 (control 0.93)", "result": 1.14, "unit": "responses/second"}, {"measurement": "Number of Responses/Second", "setting": "squirrel monkeys [4]; 1.0 mg/kg Compound 1, Day 6, Monkey 5 (control 0.51)", "result": 0.62, "unit": "responses/second"}, {"measurement": "Number of Responses/Second", "setting": "squirrel monkeys [4]; 1.0 mg/kg Compound 1, Day 7, Monkey 5 (control 0.51)", "result": 0.60, "unit": "responses/second"}, {"measurement": "Rates of cocaine self-administration, % of control levels", "setting": "male rhesus monkeys; 3.2 mg/kg Compound 1 i.m.", "result": "approximately 25 % of control levels"}, {"measurement": "Rates of cocaine self-administration and food-maintained responding across cocaine unit doses", "setting": "male rhesus monkeys; 3.2 mg/kg Compound 1 i.m., all three monkeys", "result": "decreased rates of cocaine self-administration across a wide range of cocaine unit doses while producing relatively minor effects on food-maintained responding"}, {"measurement": "Rates of food-maintained responding", "setting": "male rhesus monkeys; 3.2 mg/kg Compound 1 i.m., monkey 89B056", "result": "usually unaffected"}, {"measurement": "Rates of food-maintained responding", "setting": "male rhesus monkeys; 3.2 mg/kg Compound 1 i.m., monkey J3A", "result": "small and inconsistent changes"}, {"measurement": "Cocaine unit doses at which self-administration rates were decreased", "setting": "male rhesus monkeys; 3.2 mg/kg Compound 1 i.m., monkey WH8", "result": "0.001-0.01 mg/kg/inj"}, {"measurement": "Rates of food-maintained responding, % of control levels", "setting": "male rhesus monkeys; 3.2 mg/kg Compound 1 i.m., monkey WH8, first food component", "result": "approximately 30 % of control levels"}, {"measurement": "Rates of food-maintained responding", "setting": "male rhesus monkeys; 3.2 mg/kg Compound 1 i.m., monkey WH8, second food component", "result": "unaffected"}, {"measurement": "Range of cocaine doses across which self-administration was decreased", "setting": "male rhesus monkeys; 3.2 mg/kg Compound 1 i.m., three monkeys", "result": "one to two"}, {"measurement": "Rates of cocaine self-administration, % of control levels", "setting": "male rhesus monkeys; 0.1-1.0 mg/kg Compound 1 i.m.", "result": "50-75 % of control levels"}, {"measurement": "Overt behavioral effects", "setting": "male rhesus monkeys; Compound 1, 0.1-3.2 mg/kg i.m., prior to or during test session", "result": "did not produce noticeable overt behavioral effects"}]}]}
